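A five-concentration, 48-hour dose response in 96-well plates underlies each endpoint, interpolated linearly between surrounding concentrations. The concentration for 50% growth inhibition is given as GI50.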 Active and inactive are the calls of the source. No stated cut-off is given here; in the data, active = GI50 up to about 1.1 µM and inactive = higher.
Assays:
Experiment in all cases: DTP human tumour cell line panel, 48 h
[1] = system: U-251
[2] = system: CCRF-CEM
[3] = system: TK-10
[4] = system: SK-MEL-28
[5] = system: OVCAR-3
[6] = system: K562
[7] = system: CAKI-1
[8] = system: MCF7
[9] = system: HOP-92
[10] = system: SF-295
[11] = system: HOP-62
[12] = system: UO-31
[13] = system: OVCAR-4
[14] = system: PC-3
[15] = system: NCI/ADR-RES
[16] = system: KM12
[17] = system: IGROV-1
[18] = system: M14
[19] = system: MDA-N

| Compound | GI50 [1] | GI50 [2] | GI50 [3] | GI50 [4] | GI50 [5] | GI50 [6] | GI50 [7] | GI50 [8] | GI50 [9] | GI50 [10] | GI50 [11] | GI50 [12] | GI50 [13] | GI50 [14] | GI50 [15] | GI50 [16] | GI50 [17] | GI50 [18] | GI50 [19] |
| --- | --- | --- | --- | --- | --- | --- | --- | --- | --- | --- | --- | --- | --- | --- | --- | --- | --- | --- | --- |
| CCCCCCCCCCCCCCCCCCNc1ccn(C2OC(COP(=O)(O)OCCCCCCCCCCCCCCCC)C(O)C2O)c(=O)n1 (configuration not stated) | > 100 µM (inactive) | 77.8 µM (inactive) | > 100 µM (inactive) | > 100 µM (inactive) | > 100 µM (inactive) | > 100 µM (inactive) | > 100 µM (inactive) | > 100 µM (inactive) | > 100 µM (inactive) | > 100 µM (inactive) | > 100 µM (inactive) | > 100 µM (inactive) | > 100 µM (inactive) | > 100 µM (inactive) | > 100 µM (inactive) | > 100 µM (inactive) | > 100 µM (inactive) | > 100 µM (inactive) | – |
| COC(=O)CCCC(=O)C1=NN(c2ccc(Cl)cc2)Cc2ccccc2N1 | > 100 µM (inactive) | > 100 µM (inactive) | > 100 µM (inactive) | > 100 µM (inactive) | 93.8 µM (inactive) | > 100 µM (inactive) | > 100 µM (inactive) | 75.9 µM (inactive) | > 100 µM (inactive) | > 100 µM (inactive) | 60.5 µM (inactive) | > 100 µM (inactive) | 20.7 µM (inactive) | 91 µM (inactive) | 79.4 µM (inactive) | > 100 µM (inactive) | > 100 µM (inactive) | > 100 µM (inactive) | – |
| N#Cc1nc(C2=C(Cl)c3ccccc3OC2)[nH]c1C#N | 18.4 µM (inactive) | 11.5 µM (inactive) | 33.6 µM (inactive) | 23.2 µM (inactive) | 27.7 µM (inactive) | 22.2 µM (inactive) | 58.6 µM (inactive) | 22.8 µM (inactive) | 14.9 µM (inactive) | – | – | 24 µM (inactive) | 53.3 µM (inactive) | 11 µM (inactive) | 41.1 µM (inactive) | 26.1 µM (inactive) | 30.1 µM (inactive) | 19.4 µM (inactive) | – |
| CN(C)CCCn1cnc2ncccc2c1=O | > 100 µM (inactive) | > 100 µM (inactive) | > 100 µM (inactive) | > 100 µM (inactive) | > 100 µM (inactive) | > 100 µM (inactive) | > 100 µM (inactive) | – | > 100 µM (inactive) | > 100 µM (inactive) | > 100 µM (inactive) | > 100 µM (inactive) | > 100 µM (inactive) | – | – | > 100 µM (inactive) | > 100 µM (inactive) | > 100 µM (inactive) | – |
| CC(Oc1ccc(OCC2CCCCC2)cc1)C(N)=O (configuration not stated) | > 100 µM (inactive) | > 100 µM (inactive) | > 100 µM (inactive) | > 100 µM (inactive) | > 100 µM (inactive) | > 100 µM (inactive) | – | – | – | > 100 µM (inactive) | – | > 100 µM (inactive) | > 100 µM (inactive) | – | – | > 100 µM (inactive) | – | > 100 µM (inactive) | – |
| Cc1nc(=O)n2c(C)n[nH]c2c1C(=O)O | > 100 µM (inactive) | > 100 µM (inactive) | > 100 µM (inactive) | > 100 µM (inactive) | > 100 µM (inactive) | > 100 µM (inactive) | > 100 µM (inactive) | – | > 100 µM (inactive) | > 100 µM (inactive) | > 100 µM (inactive) | > 100 µM (inactive) | > 100 µM (inactive) | – | – | > 100 µM (inactive) | > 100 µM (inactive) | > 100 µM (inactive) | – |
| CN(C)CC1CCCCCC(Br)C1=O (configuration not stated) | 19.6 µM (inactive) | 0.352 µM (active) | 4.06 µM (inactive) | 15.9 µM (inactive) | 7.38 µM (inactive) | 2.02 µM (inactive) | 6.59 µM (inactive) | 2.71 µM (inactive) | 5.66 µM (inactive) | > 64.6 µM (inactive) | 24.8 µM (inactive) | 13.6 µM (inactive) | 15 µM (inactive) | 21.3 µM (inactive) | 13.9 µM (inactive) | 18.4 µM (inactive) | 28.2 µM (inactive) | 15.6 µM (inactive) | – |
| COC(=O)C[C@H]1[C@]2(C)C3=C(C)[C@H](c4ccoc4)CC3O[C@@H]2[C@@H]2OC(=O)[C@]3(C)CCC(=O)[C@@]1(C)[C@@H]23 (some centres not stated) | 60.8 µM (inactive) | 19.9 µM (inactive) | – | 32.5 µM (inactive) | 53 µM (inactive) | 35.2 µM (inactive) | 52.5 µM (inactive) | 31.4 µM (inactive) | > 100 µM (inactive) | > 100 µM (inactive) | > 100 µM (inactive) | 54.5 µM (inactive) | 41.3 µM (inactive) | – | 48.6 µM (inactive) | > 100 µM (inactive) | 71.3 µM (inactive) | 41.6 µM (inactive) | 49.9 µM (inactive) |
| CCOC(=O)C(Cc1c(C=O)[nH]c2ccccc12)(NC(=O)c1ccccc1)C(=O)OCC | 11.6 µM (inactive) | 6.87 µM (inactive) | 22.4 µM (inactive) | 16.9 µM (inactive) | 13 µM (inactive) | 6.46 µM (inactive) | – | – | 11.7 µM (inactive) | 14.4 µM (inactive) | – | 16.1 µM (inactive) | – | – | – | 10.3 µM (inactive) | 20.4 µM (inactive) | 17 µM (inactive) | – |
| c1ccc(CSc2nc3ccccc3nc2-c2cccs2)cc1 | > 100 µM (inactive) | 92.9 µM (inactive) | > 100 µM (inactive) | > 100 µM (inactive) | > 100 µM (inactive) | > 100 µM (inactive) | – | – | > 100 µM (inactive) | > 100 µM (inactive) | > 100 µM (inactive) | > 100 µM (inactive) | > 100 µM (inactive) | – | – | > 100 µM (inactive) | > 100 µM (inactive) | > 100 µM (inactive) | – |
| COc1cc2nc(-c3cccs3)nc(Nc3ccccc3C(=O)NN)c2cc1OC | 96.2 µM (inactive) | > 100 µM (inactive) | > 100 µM (inactive) | 99.8 µM (inactive) | 57.5 µM (inactive) | 97.5 µM (inactive) | > 100 µM (inactive) | > 100 µM (inactive) | 21.6 µM (inactive) | 66.8 µM (inactive) | > 100 µM (inactive) | > 100 µM (inactive) | 27.8 µM (inactive) | > 100 µM (inactive) | > 100 µM (inactive) | > 100 µM (inactive) | > 100 µM (inactive) | > 100 µM (inactive) | – |
| Cc1nc(=O)c2cc(CN(C)c3ccc(C(=O)N[C@@H](CCC(=O)O)C(=O)O)s3)ccc2[nH]1 [RALTITREXED] | 0.546 µM (active) | – | > 100 µM (inactive) | > 100 µM (inactive) | > 100 µM (inactive) | 0.0104 µM (active) | > 100 µM (inactive) | 8.04 µM (inactive) | > 100 µM (inactive) | 0.0535 µM (active) | 0.13 µM (active) | – | > 100 µM (inactive) | > 100 µM (inactive) | – | > 100 µM (inactive) | > 100 µM (inactive) | 0.0931 µM (active) | – |
